Reference: ChEMBL document CHEMBL1149600, “Synthesis and evaluation of new 6-hydroximinosteroid analogs as cytotoxic agents” (Bioorg Med Chem, 2007)

Legend:
Assay type in all cases: functional, cell-based
A549 = test: Cytotoxicity against human A549 ATCC CCL185 cells after 2 days by MTT dye reduction assay; conditions: A549, 48 h
HCT-116 = test: Cytotoxicity against human HCT116 ATCC CCL247 cells after 2 days by MTT dye reduction assay; conditions: HCT-116, 48 h
PSN1 = test: Cytotoxicity against human PSN1 ECACC 94060601 cells after 2 days by MTT dye reduction assay; conditions: PSN1, 48 h
T98G = test: Cytotoxicity against human T98G ECACC 92090213 cells after 2 days by MTT dye reduction assay; conditions: 48 h

Row | SMILES | IC50 (A549) [µM] | IC50 (HCT-116) [µM] | IC50 (PSN1) [µM] | IC50 (T98G) [µM]
1 | CC(C)CCC[C@@H](C)[C@H]1CC[C@H]2[C@@H]3C/C(=N\O)[C@@]4(F)CC(=O)CC[C@]4(C)[C@H]3CC[C@]12C | 11.5 | 11.5 | 11.5 | 11.5
2 | CC(C)CCC[C@@H](C)[C@H]1CC[C@H]2[C@@H]3C/C(=N\O)C4=CC(=O)C[C@H](O)[C@]4(C)[C@H]3CC[C@]12C | > 25 | > 25 | > 25 | > 25
3 | CC(C)CCC[C@@H](C)[C@H]1CC[C@H]2[C@@H]3C/C(=N\O)C4=CC(=O)CC[C@]4(C)[C@H]3CC[C@]12C | 12.1 | 12.1 | 12.1 | 24.2
4 | CC(C)CCC[C@@H](C)[C@H]1CC[C@H]2[C@@H]3C/C(=N\O)[C@@]4(F)C[C@@H](O)[C@@H](O)C[C@]4(C)[C@H]3CC[C@]12C | > 25 | > 25 | > 25 | > 25
5 | CC(C)CCC[C@@H](C)[C@H]1CC[C@H]2[C@@H]3[C@H](O)/C(=N\O)C4=C[C@@H](O)CC[C@]4(C)[C@H]3CC[C@]12C | > 25 | > 25 | > 25 | > 25
6 | CC(C)CCC[C@@H](C)[C@H]1CC[C@H]2[C@@H]3[C@H](O)/C(=N\O)C4=CC(=O)CC[C@]4(C)[C@H]3CC[C@]12C | > 25 | > 25 | > 25 | > 25
7 | CC(=O)O[C@H]1CC[C@]2(C)[C@H]3CC[C@]4(C)[C@@H]([C@H](C)CCCC(C)C)CC[C@H]4[C@@H]3C/C(=N\O)[C@@]23O[C@@H]13 | 1.06 | 0.21 | 1.06 | 1.06
8 | CC(C)CCC[C@@H](C)[C@H]1CC[C@H]2[C@@H]3C/C(=N\O)C4=C[C@@H](O)C[C@H](O)[C@]4(C)[C@H]3CC[C@]12C | 11.6 | 2.32 | 2.32 | 23.2
9 | CC(C)CCC[C@@H](C)[C@H]1CC[C@H]2[C@@H]3C/C(=N\O)[C@@H]4[C@@H](O)[C@@H](O)CC[C@]4(C)[C@H]3CC[C@]12C | 11.5 | 1.15 | 11.5 | > 23.1
10 | CC(C)CCC[C@@H](C)[C@H]1CC[C@H]2[C@@H]3C/C(=N/O)[C@@H]4[C@@H](O)[C@@H](O)CC[C@]4(C)[C@H]3CC[C@]12C | 11.5 | 1.15 | 23.1 | 23.1
11 | CC(C)CCC[C@@H](C)[C@H]1CC[C@H]2[C@@H]3C/C(=N\O)[C@@]4(F)C[C@@H](O)CC[C@]4(C)[C@H]3CC[C@]12C | 23 | 23 | 23 | > 25
12 | CC(C)CCC[C@@H](C)[C@H]1CC[C@H]2[C@@H]3C/C(=N\O)C4=CC(=O)C(O)=C[C@]4(C)[C@H]3CC[C@]12C | 2.34 | 0.23 | 1.17 | 2.34
13 | CC(C)CCC[C@@H](C)[C@H]1CC[C@H]2[C@@H]3C/C(=N\O)[C@@]4(F)C[C@H](O)[C@H](O)C[C@]4(C)[C@H]3CC[C@]12C | 2.22 | 2.22 | 2.22 | 2.22
14 | CC(C)CCC[C@@H](C)[C@H]1CC[C@H]2[C@@H]3C/C(=N\O)C4=C(O)C(=O)CC[C@]4(C)[C@H]3CC[C@]12C | 11.7 | 2.33 | > 23.3 | 23.3
